Values quoted from earlier work, collected in US9795630B2, “Compositions and methods for inducing or enhancing connective tissue repair” (Glenpharma AB, priority 2009, dated 2017).

Tested on: superficial digital flexor tendon injuries
Details: horses; Dyson 1977/1997 & 2004

In the case of `N#CCCN.N#CCCN.O=C(O)/C=C/C(=O)O` [BAPN, B-aminoproprionitrile fumarate], the “benefit of intralesional treatment (healing, recovery time, tendon repair) compared with controlled exercise alone” value is listed as “failed to show any benefit”.
